Laboratory results reported in patent US20230210819A1, “USE OF BENZISOSELAZOLE DERIVATIVE FOR ANTI-CORONAVIRUS AND CONTROL OF INTERSTITIAL LUNG DISEASE (ILD) RELATED TO CORONAVIRUS” (SHANGHAI YUANXI MEDICINE CORP., priority 2020, published 2023).

Tests used:
Format in all cases: in vivo, C57 mice
[1] = system: bleomycin-induced mouse lung disease model; assay: Lung and spleen coefficients, 7-d modeling
Experimental: (§1) Animals of 7-d modeling were randomly divided into 7 groups according to the table below, 6 animals per control group and 12 animals per test group.
(§2) Drug administration began 24 h or 7 d after modeling. […] The day of the first administration was counted as D1, the next day as D2, and so forth. The normal groups and Model groups were given 200 µL of normal saline daily by gavage administration.
Method: after being euthanized, the animals were dissected, and the heart, liver, spleen, lung and kidney were weighed.
(§3) In this experiment, 105 C57 mice were randomly selected and subjected to organ drip administration of a single dose of bleomycin at 2.5 mg/kg for 24 h or 7 d for induction. After 7 days of induction, 3 model mice were randomly selected and dissected to determine whether the modeling was successful. After modeling, the survival of the mice was recorded. The living states of the mice were observed and their body weight was measured at a fixed time.
(§4) A normal control group comprised 6 mice.

[2] = system: bleomycin-induced mouse lung disease model; assay: Lung HE pathological analysis (Ashcroft score), 24-h modeling
Experimental: Animals of 24-h modeling were randomly divided into 5 groups according to the table below, 3 animals per control group and 5 animals per test group.
as §2
(§5) 1. […] Specifically, a mold was prepared first, and then the tissue was laid flat at the bottom of the mold; after the section face was arranged facedown, the embedding box cover was put on the mold; molten wax was poured into the mold until it overflowed the mold, and then the mold was gently lifted up and laid flat in a freezing platform; after being rapidly cooled and frozen for about 10 min, the mold was took out. • 6) Sectioning method
(§6) 2. HE staining • 1) A flat section was selected for HE staining. • 2) The section was dewaxed in xylene I for 20 min. • 3) The section was dewaxed in xylene II for 20 min. • 4) The section was soaked in absolute ethanol for 10 min. • 5) Stepwise rehydrating, in absolute ethanol for 5 min, in 90% ethanol for 5 min, in 80% ethanol for 5 min, and in […] for 5 min; and a water wash. • 6) Staining with hematoxylin for 3-5 min. A water wash. • 7) Differentiating with 1% HCl-[…] for 5-10 s. A water wash, and bluing. • 8) Staining with eosin for 30-60 s. A water wash. • 9) Washing with 80% ethanol for 3-5 s, with 95% ethanol for 3-5 s, and with absolute ethanol for 3-5 s. • 10) Coverslipping with neutral resin, observing under a microscope, and photographing.
(§7) HE sectioning: 3 sections were consecutively made; flat sections of complete tissue were selected for HE staining; each of the sections was photographed in 3 randomly selected fields of view at 200x magnification. The obtained images were scored.
(§8) The general standard Ashcroft scoring method for pulmonary fibrosis tissues was adopted in HE scoring. The HE pathological analysis is an outcome evaluation for irreversible pulmonary fibrosis that develops in interstitial lung disease models.
For 5 animals from each of the 24-h modeling groups, a total of 15 HE fields of view were scored. […] According to the scoring criteria, a score below 3 points indicates there has been no significant structural change accompanying in the lung tissues.

[3] = Body weight, bleomycin-induced mice, 7-d modeling; settings: for Body weight decreased by: day 1 to day 28
Experimental: as §1, §2
All the animals were observed once daily during the experiment for death or dying, feces, ingestion, mental state and behavior and activity. Abnormalities were recorded in time. All the animals were weighed once before grouping and once before each dose.
as §3, §4

[4] = system: inflammatory cells in bronchoalveolar lavage fluid; assay: Inflammatory cell assay of bronchoalveolar lavage fluid, 7-d modeling
Experimental: as §1, §2
After the mouse was fixed, its trachea and chest cavity were exposed, and the trachea and the esophagus were bluntly separated with an ophthalmic curved forceps. Two sutures were made between the trachea and the esophagus. An intravenous trocar was inserted into the trachea and ligated at the site where it entered the trachea and at its distal end. A 1 mL syringe was connected to draw in 1 mL of pre-cooled PBS and infuse it into the lung tissue. Significant filling in the lung could be seen with the naked eye. The syringe was held for 10 s and withdrawal was performed. The infusion/withdrawal cycle was repeated 3 times. The withdrawn BALF was transferred to a clean EP tube and centrifuged at 4° C., and the supernatant was collected and preserved at -80° C. The cells were subjected to routine tests.
Upon the end of the administration, the leukocytes (lymphocytes, neutrophils and monocytes) in the bronchoalveolar lavage fluids of the mice in the 7-d modeling groups were classified and counted.

[5] = system: bleomycin-induced mouse lung disease model; assay: Lung HE pathological analysis (Ashcroft score), 7-d modeling; settings: for HE score (pulmonary fibrosis, Ashcroft): 18 fields of view
Experimental: as §1, §2, §5, §6, §7, §8
For 6 animals from each of the 7-d modeling groups, a total of 18 HE fields of view were scored.

[6] = 24-h modeling, BS 90 mg/kg gavage daily
[7] = 7-d modeling, BSH: BS 180 mg/kg gavage daily
[8] = 7-d modeling, BSL: BS 36 mg/kg gavage daily
[9] = 7-d modeling, BSM: BS 90 mg/kg gavage daily

## O=c1c2ccccc2[se]n1CCCCn1[se]c2ccccc2c1=O [BS, 1,4-[bis(1,2-benzisoselenazol-3(2H)-one)]butane]
[1]; BS 90 mg/kg or 180 mg/kg, effect better than that of Dex
  Effect on lung coefficient (in words): significantly reduce increases in the lung coefficient
[1]; BS 180 mg/kg, effect better than that of Dex
  Effect on spleen coefficient (in words): significantly decrease the spleen coefficient
[1]; BSH: BS 180 mg/kg gavage daily
  Lung coefficient: 0.88±0.05%
  Spleen coefficient: 0.39±0.02%
[1]; BSL: BS 36 mg/kg gavage daily
  Lung coefficient: 0.97±0.07%
  Spleen coefficient: 0.40±0.07%
[1]; BSM: BS 90 mg/kg gavage daily
  Lung coefficient: 0.90±0.09%
  Spleen coefficient: 0.40±0.05%
[2]; 24-h model, early stage of pulmonary fibrosis, BS 90 mg/kg
  Effect on lung tissue structure, HE (in words): significantly reduce structural changes in lung tissues
[2]; [6]
  HE score and benefit rate, >4 points (fields/total): 3/15
  HE score and benefit rate, >4 points (percent of fields): 20.0%
  HE score and benefit rate, >5, points (fields/total): 0/15 0/15
  HE score and benefit rate, >5, points (percent of fields): 0% 0%
  HE score and benefit rate, ≥3 points (fields/total): 12/15
  HE score and benefit rate, ≥3 points (percent of fields): 80.0%
[2]; 24-h modeling, BS 90 mg/kg gavage daily, 15 fields of view
  HE score (pulmonary fibrosis, Ashcroft): 3.00 ± 0.65
[2]; 24-h modeling, after 35 days of administration, Dex 1-1.5 mg/kg, BS 90 mg/kg
  Clear lung tissue damage (HE score up to 5 points), in words: no clear lung tissue damage occurred
[3]; BSH: BS 180 mg/kg gavage daily, D1
  Body weight: 19.88 ± 0.47 g
[3]; BSH: BS 180 mg/kg gavage daily, D7
  Body weight: 19.45 ± 0.62 g
[3]; BSH: BS 180 mg/kg gavage daily, D14
  Body weight: 19.26 ± 0.44 g
[3]; BSH: BS 180 mg/kg gavage daily, D21
  Body weight: 19.13 ± 0.54 g
[3]; BSH: BS 180 mg/kg gavage daily, D28
  Body weight: 19.19 ± 0.71 g
[3]; BSH: BS 180 mg/kg gavage daily
  Body weight decreased by: 3.62%
[3]; BSL: BS 36 mg/kg gavage daily, D1
  Body weight: 17.80 ± 0.72 g
[3]; BSL: BS 36 mg/kg gavage daily, D7
  Body weight: 17.49 ± 0.84 g
[3]; BSL: BS 36 mg/kg gavage daily, D14
  Body weight: 17.37 ± 0.80 g
[3]; BSL: BS 36 mg/kg gavage daily, D21
  Body weight: 17.23 ± 0.76 g
[3]; BSL: BS 36 mg/kg gavage daily, D28
  Body weight: 17.23 ± 0.82 g
[3]; BSL: BS 36 mg/kg gavage daily
  Body weight decreased by: 3.39%
[3]; BSM: BS 90 mg/kg gavage daily, D1
  Body weight: 18.20 ± 0.87 g
[3]; BSM: BS 90 mg/kg gavage daily, D7
  Body weight: 17.89 ± 0.92 g
[3]; BSM: BS 90 mg/kg gavage daily, D14
  Body weight: 17.63 ± 0.79 g
[3]; BSM: BS 90 mg/kg gavage daily, D21
  Body weight: 17.46 ± 0.73 g
[3]; BSM: BS 90 mg/kg gavage daily, D28
  Body weight: 17.41 ± 0.72 g
[3]; BSM: BS 90 mg/kg gavage daily
  Body weight decreased by: 4.53%
[4]; BS 180 mg/kg, better than Dex (1-1.5 mg/kg)
  Effect on pulmonary inflammation (in words): significantly ameliorate pulmonary inflammation
[4]; BSH: BS 180 mg/kg gavage daily
  Absolute leukocyte count in bronchoalveolar lavage fluid: 0.43±0.04 10^9/L
  Absolute lymphocyte count in bronchoalveolar lavage fluid: 0.34±0.03 10^9/L
  Absolute monocyte count in bronchoalveolar lavage fluid: 0.02±0.00 10^9/L
  Absolute neutrophil count in bronchoalveolar lavage fluid: 0.02±0.01 10^9/L
  Percent reduction in leukocytes in bronchoalveolar lavage fluid with respect to the Model group: 58.39%
  Percent reduction in lymphocytes in bronchoalveolar lavage fluid with respect to the Model group: 60.73%
  Percent reduction in monocytes in bronchoalveolar lavage fluid with respect to the Model group: 57.14%
  Percent reduction in neutrophils in bronchoalveolar lavage fluid with respect to the Model group: 74.07%
[4]; BSL: BS 36 mg/kg gavage daily
  Absolute leukocyte count in bronchoalveolar lavage fluid: 0.87±0.04 10^9/L
  Absolute lymphocyte count in bronchoalveolar lavage fluid: 0.70±0.03 10^9/L
  Absolute monocyte count in bronchoalveolar lavage fluid: 0.04±0.01 10^9/L
  Absolute neutrophil count in bronchoalveolar lavage fluid: 0.08±0.01 10^9/L
  Percent reduction in leukocytes in bronchoalveolar lavage fluid with respect to the Model group: 16.29%
  Percent reduction in lymphocytes in bronchoalveolar lavage fluid with respect to the Model group: 19.54%
  Percent reduction in monocytes in bronchoalveolar lavage fluid with respect to the Model group: 25.00%
  Percent reduction in neutrophils in bronchoalveolar lavage fluid with respect to the Model group: 7.41%
[4]; BSM: BS 90 mg/kg gavage daily
  Absolute leukocyte count in bronchoalveolar lavage fluid: 0.69±0.06 10^9/L
  Absolute lymphocyte count in bronchoalveolar lavage fluid: 0.56±0.05 10^9/L
  Absolute monocyte count in bronchoalveolar lavage fluid: 00.3±0.01 10^9/L
  Absolute neutrophil count in bronchoalveolar lavage fluid: 0.08±0.01 10^9/L
  Percent reduction in leukocytes in bronchoalveolar lavage fluid with respect to the Model group: 32.90%
  Percent reduction in lymphocytes in bronchoalveolar lavage fluid with respect to the Model group: 35.63%
  Percent reduction in monocytes in bronchoalveolar lavage fluid with respect to the Model group: 42.86%
  Percent reduction in neutrophils in bronchoalveolar lavage fluid with respect to the Model group: 16.67%
[5]; 7-d model, formation stage, BSL (36 mg/kg), BSM (90 mg/kg) and BSH (180 mg/kg)
  Effect on lung tissue structure, HE (in words): significantly reduce structural changes in lung tissues
[5]; 7-d model, BSH, 180 mg/kg
  Effect against ECM deposition (in words): significant synergetic effect against ECM deposition
[5]; 7-d modeling, BSH: BS 180 mg/kg
  Clear lung tissue damage or pathological tissue change, in words: did not show clear lung tissue damage or pathological tissue change
[5]; [7]
  HE score and benefit rate, ≥4 points (fields/total); pathological tissue change: 0/18
  HE score and benefit rate, ≥4 points (percent of fields); probability of pathological tissue change: 0%
  HE score and benefit rate, ≥5 points (fields/total); clear lung tissue damage: 0/18
  HE score and benefit rate, ≥5 points (percent of fields); probability of clear lung tissue damage: 0%
  HE score and benefit rate, ≥6 points (fields/total): 0/18
  HE score and benefit rate, ≥6 points (percent of fields): 0%
  Lung HE histology description: substantially complete lung tissue structures
  HE score (pulmonary fibrosis, Ashcroft): 1.48 ± 0.78
[5]; [8]
  HE score and benefit rate, ≥4 points (fields/total); pathological tissue change: 15/18
  HE score and benefit rate, ≥4 points (percent of fields); probability of pathological tissue change: 83.3%
  HE score and benefit rate, ≥5 points (fields/total); clear lung tissue damage: 6/18
  HE score and benefit rate, ≥5 points (percent of fields); probability of clear lung tissue damage: 33.3%
  HE score and benefit rate, ≥6 points (fields/total): 1/18
  HE score and benefit rate, ≥6 points (percent of fields): 5.6%
  Lung HE histology description: relatively better lung structures than the Model group
  HE score (pulmonary fibrosis, Ashcroft): 4.28 ± 0.83
[5]; [9]
  HE score and benefit rate, ≥4 points (fields/total); pathological tissue change: 5/18
  HE score and benefit rate, ≥4 points (percent of fields); probability of pathological tissue change: 27.8%
  HE score and benefit rate, ≥5 points (fields/total); clear lung tissue damage: 1/18
  HE score and benefit rate, ≥5 points (percent of fields); probability of clear lung tissue damage: 5.6%
  HE score and benefit rate, ≥6 points (fields/total): 0/18
  HE score and benefit rate, ≥6 points (percent of fields): 0%
  Lung HE histology description: much better lung structures than the Model group
  HE score (pulmonary fibrosis, Ashcroft): 3.00 ± 0.84
